This note sets out measurements from publication PMC4290723 (British Journal of Pharmacology, 2014).

For the test, the target named is T1, RoDH4 (also named RDH16) (Homo sapiens, UniProt O75452).
T1 sequence (O75452 1-317): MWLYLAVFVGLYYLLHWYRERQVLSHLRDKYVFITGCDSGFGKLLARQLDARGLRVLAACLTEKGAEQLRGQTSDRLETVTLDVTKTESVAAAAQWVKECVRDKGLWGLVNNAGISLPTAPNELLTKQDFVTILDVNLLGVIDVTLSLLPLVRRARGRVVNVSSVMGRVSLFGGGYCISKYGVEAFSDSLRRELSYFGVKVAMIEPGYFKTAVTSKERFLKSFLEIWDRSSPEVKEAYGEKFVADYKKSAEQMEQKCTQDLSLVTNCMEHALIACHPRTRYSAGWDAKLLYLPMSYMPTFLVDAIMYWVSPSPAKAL
As to the kind of experiment: single-concentration ([…]) inhibition of allopregnanolone oxidation by membranes of RoDH4-transfected HEK293 cells. The format is cell-based.

Each structure is given as a SMILES string. Read-outs that look alike come from different tables or passages of the source.

As for `CN(C)CCCN1c2ccccc2CCc2ccccc21` [imipramine], the remaining activity at 240 µM (HEK293, read-out: % control at 240 μM) was 25.45 ± 0.04%.

`NCCC(Oc1ccc(C(F)(F)F)cc1)c1ccccc1` (centres unmarked) [norfluoxetine]: the remaining activity at 240 µM (HEK293; read-out: % control at 240 μM) came to 37.8 ± 0.95%.
